pIC50: −log10 of the molar value.
Target: T1, DRP1 (Homo sapiens, UniProt O00429)
T1 construct: Human DRIP1 (UniProtID: O00429.4, residues 1-699); made in house; host or cells: Escherichia coli BL21 CodonPlus DE3
Experiment: AlphaLISA assay (His-DRP1 / MiD49-GST interaction)
Type: binding
Conditions: His-DRP1 200 nM, MiD49-GST 20 nM, GMP-PNP 100 uM
Method: Human DRIP1 (UniProtID: O00429.4, residues 1-699), and human MiD49 (UnitProtIS: Q96C03.1, residues 126-454) was cloned into a pET15b vector as an N-terminal His-tag Fusion. All constructs were transformed in Escherichia coli host strain BL21 CodonPlus DE3. Bacteria was grown in LB media with 100 μg/ml ampicillin and 34 μg/ml chloramphenicol in an orbital shaker at 37° C. until OD600 reached 0.4, at which temperature was reduced to 16° C. Recombinant protein expression was expressed for 18 hr by the addition of IPTG at OD600 of about 0.8. All cultures were spun down and bacterial pellets were used for protein purification.
For His-DRP1, the pellets were resuspended in DRP-buffer A (20 mM Tris, 500 KCl, 1.89 β-ME, pH 8.0) and protease inhibitor cocktail (Roche), followed by cell disruption by sonication (400 W, pulse 3 sec on, 3 sec off, total 20 min). The lysate was centrifuged at 20,000 g and then supernatant applied to a preequilibrated Ni-NTA column with DRP-buffer A. The column was extensively washed with buffer A containing 50 mM imidazole. Purified His-DRP1 was eluted with DRP-buffer A containing 250 mM imidazole and dialyzed overnight at 4° C. (18 kDa cutoff) against DRP-buffer A to remove imidazole. For AlphaLISA, the His tag was retained on DRP1 full-length.
For MiD49-GST, the bacterial pellets were resuspended and sonicated in MID lysis buffer (25 mM Tris-HCl, pH 7.5, 500 mM NaCl, 5% glycerol, 1 mM TCEP, and 0.5% CHAPS). The lysate was pre-cleared at 20,300 g before applying to a glutathione column. Unbound proteins were washed using MID-buffer A (25 mM Tris-HCl, pH 7.5, 300 mM NaCl, 5% glycerol, 1 mM TCEP) and MID-buffer B (25 mM Tris-HCl, pH 7.5, 300 mM NaCl, 5% glycerol, 1 mM TCEP, 1 mM GSH). The protein was eluted with MID-buffer C (25 mM Tris-HCl, pH 7.5, 300 mM NaCl, 5% glycerol, 1 mM TCEP, 10 mM GSH). The target protein was concentrated in the ultra-filtration tube with MW cutoff 30 kDa and further purified by size-exclusion chromatography on a Superdex-200 column (GE Healthcare) in buffer A. Fractions containing MiD49-GST (126-454) were pooled, concentrated, flash-frozen as single-use aliquots in liquid nitrogen and stored at −80° C.
A total of 100 nl of compounds were plated in a 384-well AlphaPlate (PerkinElmer, Waltham, MA) at concentrations 100 uM to […] in DMSO (dilution by 3.165 for 11 concentration levels). Recombinant His-DRP1 (200 nM), MiD49-GST (20 nM), and GMP-PNP (100 uM) were mixed in assay buffer (PBS with 1.5% BSA, 1 mM DTT). Five microliters of the protein mixture were added to the plate and incubate at room temperature for 30 min. Glutathione donor beads and nickel chelate acceptor beads were diluted and mixed in assay buffer to obtain 40 μg/ml of each bead. Five microliters of the mixed beads were added to each well on the microplate leading to a final bead concentration of 20 µg/ml per well. The sealed plate was incubated at room temperature for 60 min and protected from light. The AlphaLISA signal was detected with an EnVision Multilabel Reader (excitation at 680 and emission 615 nm). GraphPad Prism was used to calculate the IC50 by applying sigmoidal dose-response fit (variable slope).

T1 sequence (O00429 1-699 isoform O00429-4): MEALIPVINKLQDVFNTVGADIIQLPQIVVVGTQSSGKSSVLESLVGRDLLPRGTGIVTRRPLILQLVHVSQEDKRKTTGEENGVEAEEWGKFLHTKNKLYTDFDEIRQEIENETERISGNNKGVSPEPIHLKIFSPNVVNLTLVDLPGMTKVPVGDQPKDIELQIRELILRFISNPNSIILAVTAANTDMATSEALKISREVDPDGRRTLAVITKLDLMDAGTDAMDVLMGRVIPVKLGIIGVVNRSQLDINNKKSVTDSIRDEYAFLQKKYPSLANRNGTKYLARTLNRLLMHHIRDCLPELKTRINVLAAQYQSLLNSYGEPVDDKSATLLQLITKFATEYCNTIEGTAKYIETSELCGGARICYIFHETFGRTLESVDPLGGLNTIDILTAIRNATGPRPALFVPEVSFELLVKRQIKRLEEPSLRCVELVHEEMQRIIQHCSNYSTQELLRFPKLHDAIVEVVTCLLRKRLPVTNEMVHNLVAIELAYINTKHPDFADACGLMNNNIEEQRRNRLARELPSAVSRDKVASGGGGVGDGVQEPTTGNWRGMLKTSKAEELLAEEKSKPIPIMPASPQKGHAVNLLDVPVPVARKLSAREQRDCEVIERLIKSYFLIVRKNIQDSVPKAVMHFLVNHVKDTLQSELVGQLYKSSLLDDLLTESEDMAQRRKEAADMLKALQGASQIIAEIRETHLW

pIC50	SMILES
6.00 to 6.30	COCCOc1cc(-c2cncs2)nc2ccc(NC(=O)[C@@H]3C[C@H]3C#N)cc12 (racemic) [Example 19, trans-2-cyano-N-(4-(2-methoxyethoxy)-2-(thiazol-5-yl)quinolin-6-yl)cyclopropane-1-carboxamide]
> 6.30	COCCOc1cc(-c2cncs2)nc2ccc(NC(=O)C3COC3)cc12 [Example 1, N-(4-(2-methoxyethoxy)-2-(thiazol-5-yl)quinolin-6-yl)oxetane-3-carboxamide]
> 6.30	CCOc1cc(-n2cnc(C)c2)nc2ccc(NC(=O)C3COC3)cc12 [Example 2, N-(4-ethoxy-2-(4-methyl-1H-imidazol-1-yl)quinolin-6-yl)oxetane-3-carboxamide]
> 6.30	CCOc1cc(-c2cncs2)nc2ccc(NC(=O)C3COC3)cc12 [Example 3, N-(4-ethoxy-2-(thiazol-5-yl)quinolin-6-yl)oxetane-3-carboxamide]
6.00 to 6.30	CCOc1cc(-c2cncs2)nc2ccc(NC(=O)C34CC(C3)C4)cc12 [Example 4, N-(4-ethoxy-2-(thiazol-5-yl)quinolin-6-yl)bicyclo[1.1.1]pentane-1-carboxamide]
6.00 to 6.30	COc1cc(-c2cncs2)nc2ccc(NC(=O)C3COC3)cc12 [Example 5, N-(4-methoxy-2-(thiazol-5-yl)quinolin-6-yl) oxetane-3-carboxamide]
> 6.30	CCOc1cc(-c2cnc(C)s2)nc2ccc(NC(=O)C3COC3)cc12 [Example 6, N-(4-ethoxy-2-(2-methylthiazol-5-yl)quinolin-6-yl) oxetane-3-carboxamide]
> 6.30	CCOc1cc(-c2cnc(OC)s2)nc2ccc(NC(=O)C3COC3)cc12 [Example 7, N-(4-ethoxy-2-(2-methoxythiazol-5-yl)quinolin-6-yl) oxetane-3-carboxamide]
6.00 to 6.30	CCOc1cc(-c2cnc(C3CC3)s2)nc2ccc(NC(=O)C3COC3)cc12 [Example 8, N-(2-(2-cyclopropylthiazol-5-yl)-4-ethoxyquinolin-6-yl) oxetane-3-carboxamide]
> 6.30	O=C(Nc1ccc2nc(-c3cncs3)cc(OCCO)c2c1)C1COC1 [Example 9, N-(4-(2-hydroxyethoxy)-2-(thiazol-5-yl)quinolin-6-yl) oxetane-3-carboxamide]
5.00 to 6.00	O=C(Nc1ccc2nc(-c3cncs3)cc(OCCO)c2c1)C(F)(F)F [Example 10, 2,2,2-trifluoro-N-(4-(2-hydroxyethoxy)-2-(thiazol-5-yl)quinolin-6-yl)acetamide]
6.00 to 6.30	COCCOc1cc(-c2cnc(C)s2)nc2ccc(NC(=O)C3COC3)cc12 [Example 11, N-(4-(2-methoxyethoxy)-2-(2-methylthiazol-5-yl)quinolin-6-yl)oxetane-3-carboxamide]
5.00 to 6.00	CCOc1cc(-c2cnc(Cl)s2)nc2ccc(NC(=O)C3COC3)cc12 [Example 12, N-(2-(2-chlorothiazol-5-yl)-4-ethoxyquinolin-6-yl)oxetane-3-carboxamide]
5.00 to 6.00	COCCOc1cc(-c2cncs2)nc2ccc(NC(=O)CO)cc12 [Example 13, 2-hydroxy-N-(4-(2-methoxyethoxy)-2-(thiazol-5-yl)quinolin-6-yl) acetamide]
5.00 to 6.00	COCCOc1cc(-c2cncs2)nc2ccc(NC(=O)[C@H](C)O)cc12 [Example 14, (S)-2-hydroxy-N-(4-(2-methoxyethoxy)-2-(thiazol-5-yl)quinolin-6-yl)propanamide]
5.00 to 6.00	COCCOc1cc(-c2cncs2)nc2ccc(NC(=O)[C@@H](C)O)cc12 [Example 15, (R)-2-hydroxy-N-(4-(2-methoxyethoxy)-2-(thiazol-5-yl)quinolin-6-yl)propanamide]

pIC50	SMILES
> 6.30	COCCOc1cc(-c2cncs2)nc2ccc(NC(=O)[C@H]3C[C@@H](O)C3)cc12 [Example 16, cis-3-hydroxy-N-(4-(2-methoxyethoxy)-2-(thiazol-5-yl)quinolin-6-yl)cyclobutane-1-carboxamide]
> 6.30	COCCOc1cc(-c2cncs2)nc2ccc(NC(=O)[C@H]3C[C@H](O)C3)cc12 [Example 17, trans-3-hydroxy-N-(4-(2-methoxyethoxy)-2-(thiazol-5-yl)quinolin-6-yl)cyclobutane-1-carboxamide]
> 6.30	COCCOc1cc(-c2cncs2)nc2ccc(NC(=O)C3CC3C)cc12 (centres unmarked) [Example 18, N-(4-(2-methoxyethoxy)-2-(thiazol-5-yl)quinolin-6-yl)-2-methylcyclopropane-1-carboxamide]
5.00 to 6.00	COCCOc1cc(-c2cncs2)nc2ccc(NC(=O)C3CC3C(F)(F)F)cc12 (centres unmarked) [Example 20, N-(4-(2-methoxyethoxy)-2-(thiazol-5-yl)quinolin-6-yl)-2-(trifluoromethyl)cyclopropane-1-carboxamide]
5.00 to 6.00	COCCOc1cc(-c2cncs2)nc2ccc(NC(=O)COC)cc12 [Example 21, 2-methoxy-N-(4-(2-methoxyethoxy)-2-(thiazol-5-yl)quinolin-6-yl)acetamide]
> 6.30	COCCOc1cc(-c2cncs2)nc2ccc(NC(=O)C(C)OC)cc12 (centres unmarked) [Example 22, 2-methoxy-N-(4-(2-methoxyethoxy)-2-(thiazol-5-yl)quinolin-6-yl)propanamide]
> 6.30	COCCOc1cc(-c2cncs2)nc2ccc(NC(=O)C3CCCOC3)cc12 (centres unmarked) [Example 23, N-(4-(2-methoxyethoxy)-2-(thiazol-5-yl)quinolin-6-yl)tetrahydro-2H-pyran-3-carboxamide]
6.00 to 6.30	COCCOc1cc(-c2cncs2)nc2ccc(NC(=O)CCOC)cc12 [Example 24, 3-methoxy-N-(4-(2-methoxyethoxy)-2-(thiazol-5-yl)quinolin-6-yl)propanamide]
> 6.30	CCCOC(C)C(=O)Nc1ccc2nc(-c3cncs3)cc(OCCOC)c2c1 (centres unmarked) [Example 25, N-(4-(2-methoxyethoxy)-2-(thiazol-5-yl)quinolin-6-yl)-2-propoxypropanamide]
> 6.30	CCOC(C)C(=O)Nc1ccc2nc(-c3cncs3)cc(OCCOC)c2c1 (centres unmarked) [Example 26, 2-ethoxy-N-(4-(2-methoxyethoxy)-2-(thiazol-5-yl)quinolin-6-yl)propanamide]
6.00 to 6.30	COCCOc1cc(-c2cncs2)nc2ccc(NC(=O)C(F)(F)CO)cc12 [Example 27, 2,2-difluoro-3-hydroxy-N-(4-(2-methoxyethoxy)-2-(thiazol-5-yl)quinolin-6-yl)propanamide]
> 6.30	COCCOc1cc(-c2cncs2)nc2ccc(NC(=O)C(C)C#N)cc12 (centres unmarked) [Example 28, 2-cyano-N-(4-(2-methoxyethoxy)-2-(thiazol-5-yl)quinolin-6-yl)propanamide]
< 5.00	COCCOc1cc(-c2cncs2)nc2ccc(NC(=O)C3(OC)CC3)cc12 [Example 29, 1-methoxy-N-(4-(2-methoxyethoxy)-2-(thiazol-5-yl)quinolin-6-yl)cyclopropane-1-carboxamide]
5.00 to 6.00	COCCOc1cc(-c2cncs2)nc2ccc(NC(=O)C3CC(F)(F)C3)cc12 [Example 30, 3,3-difluoro-N-(4-(2-methoxyethoxy)-2-(thiazol-5-yl)quinolin-6-yl)cyclobutane-1-carboxamide]
5.00 to 6.00	COCCOc1cc(-c2cncs2)nc2ccc(NC(=O)C34CC(C3)C4)cc12 [Example 31, N-(4-(2-methoxyethoxy)-2-(thiazol-5-yl)quinolin-6-yl)bicyclo[1.1.1]pentane-1-carboxamide]
6.00 to 6.30	COCCOc1cc(-c2cncs2)nc2ccc(NC(=O)C(C)COC)cc12 (centres unmarked) [Example 32, 3-methoxy-N-(4-(2-methoxyethoxy)-2-(thiazol-5-yl)quinolin-6-yl)-2-methylpropanamide]

— patent publication US20260125372A1, “DYNAMIN-1-LIKE PROTEIN INHIBITORS AND USES THEREOF” (Astellas Engineered Small Molecules US, Incorporated, priority 2022, published 2026)
